Legend:
[1] = molecular target: GDP-bound HRAS wild-type protein (Homo sapiens, UniProt P01112); assay: Binding to HRAS by surface plasmon resonance (SPR), Single Cycle Kinetics; settings: SPR, GDP-bound HRAS wild-type protein vs GDP-bound KRAS wild-type protein
[2] = molecular target: GDP-bound NRAS wild-type protein (Homo sapiens, UniProt P01111); assay: Binding to NRAS by surface plasmon resonance (SPR), Single Cycle Kinetics; settings: SPR, GDP-bound NRAS wild-type protein vs GDP-bound KRAS wild-type protein
Sequence of GDP-bound NRAS wild-type protein (P01111 whole entry): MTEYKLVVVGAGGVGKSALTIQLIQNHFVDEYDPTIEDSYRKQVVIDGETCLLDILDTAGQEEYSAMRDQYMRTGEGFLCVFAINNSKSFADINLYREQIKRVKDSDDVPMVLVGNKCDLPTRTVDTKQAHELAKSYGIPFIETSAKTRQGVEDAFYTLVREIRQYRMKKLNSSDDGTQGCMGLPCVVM

[3] = molecular target: GDP-bound KRAS wild-type protein (Homo sapiens, UniProt P01116); assay: Binding to KRAS by surface plasmon resonance (SPR), Single Cycle Kinetics; settings: SPR, Single Cycle Kinetics, GDP-bound KRAS wild-type protein; read-out: KRAS KD
Sequence of GDP-bound KRAS wild-type protein (P01116 whole entry): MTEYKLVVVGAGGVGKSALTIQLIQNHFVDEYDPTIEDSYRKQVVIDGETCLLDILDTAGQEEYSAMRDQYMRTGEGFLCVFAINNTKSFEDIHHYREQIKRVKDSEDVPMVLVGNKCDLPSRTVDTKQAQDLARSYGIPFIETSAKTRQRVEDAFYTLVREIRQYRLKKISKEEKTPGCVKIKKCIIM

Sequence of GDP-bound HRAS wild-type protein (P01112 whole entry): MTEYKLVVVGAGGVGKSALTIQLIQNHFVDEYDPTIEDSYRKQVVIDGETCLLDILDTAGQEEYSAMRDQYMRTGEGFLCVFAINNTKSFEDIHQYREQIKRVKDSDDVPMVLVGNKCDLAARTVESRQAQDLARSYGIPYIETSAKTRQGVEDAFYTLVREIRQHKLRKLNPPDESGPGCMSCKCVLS

| Compound | HRAS/KRAS (ratio of KD value for HRAS to KD value for KRAS) [1] | NRAS/KRAS (ratio of KD value for NRAS to KD value for KRAS) [2] | Kd [3] |
| --- | --- | --- | --- |
| CCO[C@@H]1C[C@H]2C(=O)NC3(CC(C)(C)C3)C(=O)N(C)[C@@H](C(CC)CC)C(=O)N(C)[C@H](C(=O)N(C)C)CC(=O)N(C)[C@H]3CCCCCc4ccc(cc4)C[C@@H](C(=O)N(C)CC(=O)N[C@@H](CCc4ccc(C(F)(F)F)c(OC)c4)C(=O)N2C1)N1CC/C=C\C[C@@H](C1=O)N(C)C(=O)CN(C)C(=O)[C@H]([C@@H](C)CC)NC3=O [PP3035] | A (a compound having 10 or more and less than 20 is denoted as A) | AA (a compound having 20 or more is denoted as AA) | 92 pM |
| CCO[C@@H]1C[C@H]2C(=O)NC3(CC(C)(C)C3)C(=O)N(C)[C@@H](C3CCCC3)C(=O)N(C)[C@H](C(=O)N3CCCCC3)CC(=O)N(C)[C@H]3CCCCCc4ccc(cc4)C[C@@H](C(=O)N(C)CC(=O)N[C@@H](CCc4ccc(C(F)(F)F)c(OC)c4)C(=O)N2C1)N1CC/C=C\C[C@@H](C1=O)N(C)C(=O)CN(C)C(=O)[C@H]([C@@H](C)CC)NC3=O [PP3036, (1S,7S,11R,13S,19S,22S,26S,29S,35S,37Z)-19-cyclopentyl-11-ethoxy-7-[2-[3-methoxy-4-(trifluoromethyl)phenyl]ethyl]-3,3′,3′,18,21,25,31,34-octamethyl-29-[(1S)-1-methylpropyl]-22-(piperidine-1-carbonyl)spiro[3,6,9,15,18,21,25,28,31,34,41-undecazapentacyclo[24.15.10.2^43,46.1^35,41.0^9,13]tetrapentaconta-37,43(53),44,46(52)-tetraene-16,1′-cyclobutane]-2,5,8,14,17,20,24,27,30,33,54-undecone] | B (a compound having 3 or more and less than 10 is denoted as B) | A (a compound having 10 or more and less than 20 is denoted as A) | 170 pM |
| CCO[C@@H]1C[C@H]2C(=O)NC3(CC(C)(C)C3)C(=O)N(C)[C@@H](C3CCCC3)C(=O)N(C)[C@H](C(=O)N3CCCC3)CC(=O)N(C)[C@H]3CCCCCc4ccc(cc4)C[C@@H](C(=O)N(C)CC(=O)N[C@@H](CCc4ccc(C(F)(F)F)c(OC)c4)C(=O)N2C1)N1CC/C=C\C[C@@H](C1=O)N(C)C(=O)CN(C)C(=O)[C@H]([C@@H](C)CC)NC3=O [PP3037, (1S,7S,11R,13S,19S,22S,26S,29S,35S,37Z)-19-cyclopentyl-11-ethoxy-7-[2-[3-methoxy-4-(trifluoromethyl)phenyl]ethyl]-3,3′,3′,18,21,25,31,34-octamethyl-29-[(1S)-1-methylpropyl]-22-(pyrrolidine-1-carbonyl)spiro[3,6,9,15,18,21,25,28,31,34,41-undecazapentacyclo[24.15.10.2^43,46.1^35,41.0^9,13]tetrapentaconta-37,43(53),44,46(52)-tetraene-16,1′-cyclobutane]-2,5,8,14,17,20,24,27,30,33,54-undecone] | B (a compound having 3 or more and less than 10 is denoted as B) | A (a compound having 10 or more and less than 20 is denoted as A) | 110 pM |
| CCCO[C@@H]1C[C@H]2C(=O)NC3(CC(C)(C)C3)C(=O)N(C)[C@@H](C(CC)CC)C(=O)N(C)[C@H](C(=O)N(C)C)CC(=O)N(C)[C@H]3CCCCc4ccc(cc4)C[C@@H](C(=O)N(C)CC(=O)N[C@@H](CCc4ccc(C(F)(F)F)c(OC)c4)C(=O)N2C1)N1CC/C=C\C[C@@H](C1=O)N(C)C(=O)CN(C)C(=O)[C@H]([C@@H](C)CC)NC3=O [PP3038] | A (a compound having 10 or more and less than 20 is denoted as A) | A (a compound having 10 or more and less than 20 is denoted as A) | 150 pM |
| CCO[C@@H]1C[C@H]2C(=O)NC3(CCC3)C(=O)N(C)[C@@H](C(CC)CC)C(=O)N(C)[C@H](C(=O)N3CCCC3)CC(=O)N(C)[C@H]3CCC/C=C/c4ccc(cc4)C[C@@H](C(=O)N(C)CC(=O)N[C@@H](CCc4ccc(Cl)c(Cl)c4)C(=O)N2C1)N1CC/C=C\C[C@@H](C1=O)N(C)C(=O)CN(C1CC1)C(=O)[C@H]([C@@H](C)CC)NC3=O [PP3040] | A (a compound having 10 or more and less than 20 is denoted as A) | AA (a compound having 20 or more is denoted as AA) | 290 pM |
| CCO[C@@H]1C[C@H]2C(=O)NC3(CC(C)(C)C3)C(=O)N(C)[C@@H](C(CC)CC)C(=O)N(C)[C@H](C(=O)N(C)C)CC(=O)N(C)[C@H]3CCCC/C=C/c4ccc(cc4)C[C@@H](C(=O)N(C)CC(=O)N[C@@H](CCc4ccc(Cl)c(Cl)c4)C(=O)N2C1)N1CC/C=C\C[C@@H](C1=O)N(C)C(=O)CN(C)C(=O)[C@H]([C@@H](C)CC)NC3=O [PP3045] | A (a compound having 10 or more and less than 20 is denoted as A) | AA (a compound having 20 or more is denoted as AA) | 130 pM |
| CCO[C@@H]1C[C@H]2C(=O)NC3(CCC3)C(=O)N(C)[C@@H](C(CC)CC)C(=O)N(C)[C@H](C(=O)N3CCCCC3)CC(=O)N(C)[C@H]3CCCC/C=C/c4ccc(cc4)C[C@@H](C(=O)N(C)CC(=O)N[C@@H](CCc4ccc(Cl)c(Cl)c4)C(=O)N2C1)N1CC/C=C\C[C@@H](C1=O)N(C)C(=O)CN(C)C(=O)[C@H]([C@@H](C)CC)NC3=O [PP3046] | A (a compound having 10 or more and less than 20 is denoted as A) | AA (a compound having 20 or more is denoted as AA) | 390 pM |
| CCO[C@@H]1C[C@H]2C(=O)NC3(CCC3)C(=O)N(C)[C@@H](C(CC)CC)C(=O)N(C)[C@H](C(=O)N3CCCC3)CC(=O)N(C)[C@H]3CCCC/C=C/c4ccc(cc4)C[C@@H](C(=O)N(C)CC(=O)N[C@@H](CCc4ccc(Cl)c(Cl)c4)C(=O)N2C1)N1CC/C=C\C[C@@H](C1=O)N(C)C(=O)CN(C)C(=O)[C@H]([C@@H](C)CC)NC3=O [PP3047, (1S,7S,11R,13S,19S,22S,26S,29S,35S,37Z,47E)-7-[2-(3,4-dichlorophenyl)ethyl]-11-ethoxy-19-(1-ethylpropyl)-3,18,21,25,31,34-hexamethyl-29-[(1S)-1-methylpropyl]-22-(pyrrolidine-1-carbonyl)spiro[3,6,9,15,18,21,25,28,31,34,41-undecazapentacyclo[24.15.11.2^43,46.1^35,41.0^9,13]pentapentaconta-37,43(54),44,46(53),47-pentaene-16,1′-cyclobutane]-2,5,8,14,17,20,24,27,30,33,55-undecone] | A (a compound having 10 or more and less than 20 is denoted as A) | AA (a compound having 20 or more is denoted as AA) | 180 pM |
| CCO[C@@H]1C[C@H]2C(=O)NC3(CC(C)(C)C3)C(=O)N(C)[C@@H](C(CC)CC)C(=O)N(C)[C@H](C(=O)N(C)C)CC(=O)N(C)[C@H]3CCCCC/C=C/c4ccc(cc4)C[C@@H](C(=O)N(C)CC(=O)N[C@@H](CCc4cc(F)c(C(F)(F)F)c(F)c4)C(=O)N2C1)N1CC/C=C\C[C@@H](C1=O)N(C)C(=O)CN(C)C(=O)[C@H]([C@@H](C)CC)NC3=O [PP3048] | A (a compound having 10 or more and less than 20 is denoted as A) | A (a compound having 10 or more and less than 20 is denoted as A) | 110 pM |
| CCO[C@@H]1C[C@H]2C(=O)NC3(CC(C)(C)C3)C(=O)N(C)[C@@H](C(CC)CC)C(=O)N(C)[C@H](C(=O)N(C)C)CC(=O)N(C)[C@H]3CCCCC/C=C/c4ccc(cc4)C[C@@H](C(=O)N(C)CC(=O)N[C@@H](CCc4ccc(Cl)c(Cl)c4)C(=O)N2C1)N1CC/C=C\C[C@@H](C1=O)N(C)C(=O)CN(C)C(=O)[C@H]([C@@H](C)CC)NC3=O [PP3050] | A (a compound having 10 or more and less than 20 is denoted as A) | AA (a compound having 20 or more is denoted as AA) | 290 pM |
| CCO[C@@H]1C[C@H]2C(=O)NC3(CCC3)C(=O)N(C)[C@@H](C(CC)CC)C(=O)N(C)[C@H](C(=O)N3CCCC3)CC(=O)N(C)[C@H]3CCCCC/C=C/c4ccc(cc4)C[C@@H](C(=O)N(C)CC(=O)N[C@@H](CCc4ccc(Cl)c(Cl)c4)C(=O)N2C1)N1CC/C=C\C[C@@H](C1=O)N(C)C(=O)CN(C)C(=O)[C@H]([C@@H](C)CC)NC3=O [PP3052] | A (a compound having 10 or more and less than 20 is denoted as A) | AA (a compound having 20 or more is denoted as AA) | 260 pM |
| CC[C@H](C)[C@@H]1NC(=O)[C@@H]2CCC/C=C/c3ccc(cc3)C[C@@H](C(=O)N(C)CC(=O)N[C@@H](CCc3ccc(Cl)c(Cl)c3)C(=O)N3C[C@H](OC4CCC4)C[C@H]3C(=O)NC3(CC(C)(C)C3)C(=O)N(C)[C@@H](C3CCCC3)C(=O)N(C)[C@H](C(=O)N3CCCC3)CC(=O)N2C)N2CC/C=C\C[C@@H](C2=O)N(C)C(=O)CN(C)C1=O [PP3053] | A (a compound having 10 or more and less than 20 is denoted as A) | A (a compound having 10 or more and less than 20 is denoted as A) | 160 pM |
